# Measured values from article PMC7178834, “Antiproliferative benzothiazoles incorporating a trimethoxyphenyl scaffold as novel colchicine site tubulin polymerisation inhibitors” (Journal of Enzyme Inhibition and Medicinal Chemistry, 2020).
# Assays:
# [1] = tested on: human cervical cancer cell line ME-180; parameters: method as in PMID 24332497; details: read-out: Cytotoxicity IC50, ME-180; cited from earlier work
# 22RV1 cells [2] = experiment: MTT antiproliferative assay, 22RV1 cells; type: cell-based; details: for IC50: MTT assay, exposure for 72 h
# Method: (§1) PC3, C42B, 22RV1, and LNCAP cell lines were cultured in an atmosphere containing 5% CO2 at 37 °C, with RPMI-1640 medium with 10% foetal bovine serum, 100 U/ml penicillin and 0.1 mg/ml streptomycin. Cells were seeded at a density of 1500 per well in 96-well plates for 72 h. Then, 20 μL MTT (thiazolyl blue tetrazolium bromide) solution was added to each well, and incubated for 4 h at 37 °C. 150 μL DMSO was added to each well to dissolve the formazan after removing the liquid, the absorbance was determined at 570 nm.
# To discovery novel anti-prostate cancer agents and tubulin polymerisation inhibitors, we evaluated the antiproliferative activity of all benzothiazole derivatives 9a∼9k and 12a∼12d against a prostate cancer cell line 22RV1 using the 3–(4,5-dimethyl-2-thiazolyl)-2,5-diphenyl-2-H-tetrazolium bromide (MTT) assay. Based on previous references, [5]-fluorouracil (5-Fu) and was usually selected as a reference drug in the MTT assay to evaluate the antiproliferative activity of synthetic benzothiazole derivatives[26]^,[27]. Therefore, 5-Fu was used as the control drug in this work. In addition, compound 4 was also the control drug to compare the antiproliferative activity.
# PC3 cells [3] = experiment: MTT antiproliferative assay, PC3 cells; type: cell-based; details: Homo sapiens, PC-3
# Method: as §1
# (§2) Compound 12a was further examined for possible cytotoxicity against RWPE-1 (normal human prostatic cell line). […] To evaluate its antiproliferative activity against other prostate cancer cell lines, C42B, LNCAP and PC3 cells were selected to perform MTT assay.
# LNCAP cells = experiment: MTT antiproliferative assay, LNCAP cells; type: cell-based; details: Homo sapiens
# Method: as §1, §2
# [4] = tested on: apoptosis-related proteins (Bcl-2 and Cleaved-parp); experiment: Western blot of apoptosis-related proteins, PC3 cells; type: cell-based; details: concentration-dependent
# Method: (§3) Cellular protein lysates were denatured in loading buffer at 100 °C prior to adding into SDS-PAGE. Proteins were transferred to nitrocellulose membranes, probed with indicated antibodies, and visualised by an enhanced chemiluminescence detection system. The western blotting bands were semi-quantified using Image J and adjusted for loading control.
# (§4) Bcl-2 family proteins are key regulators of apoptosis and overexpression of the prominent pro-survival Bcl-2 family members like Bcl-2 is a common feature responsible for deregulation of apoptosis in prostate cancer cells. In order to investigate the apoptosis effects of compound 12a, the expression of apoptosis-related proteins (Bcl-2 and Cleaved-parp) were tested. As shown in the Figure 6(B), the expression level of Bcl-2 was decreased and the expression level of Cleaved-parp was increased in a concentration-dependent manner against prostate cancer (22RV1 cells and PC3 cells).
# tubulin = experiment: In vitro tubulin polymerisation assay; type: biochemical; details: tubulin 5.6 mg/ml in PEM buffer, read-out: Tubulin polymerisation inhibition IC50
# Method: Tubulin (5.6 mg/ml) was resuspended in PEM buffer (containing 80 mM PIPES, […], 1 mM EGTA, 10.2% glycerol, 0.5 mM MgCl2) and then was preincubated with compound 12a, colchicine or vehicle DMSO on ice. The reaction was monitored by a spectrophotometer in […] at 420 nm (excitation wavelength is 340 nm).
# The in vitro tubulin polymerisation inhibition activity of compound 12a was evaluated because of its best antiproliferative activity results among all benzothiazole hybrids. When tubulin was incubated with the tested compound 12a, the increased tendency of the fluorescence intensity was obviously slowed down compared with the control.
# [5] = tested on: colchicine-binding site of β-tubulin; experiment: EBI competition assay in PC3 cells; type: cell-based; details: preincubation at 10 μM, Western blot
# Method: 6-Well plates were seeded with PC3 cells for 24 h. Then, cells were incubated with compound 12a, colchicine or DMSO for 2 h and afterward treated with EBI ([…]) for 2 h. Then, the cells were harvested and lysed. Cell extracts were used for Western blotting analysis.
# as §3
# In order to evaluate whether benzothiazole hybrid 12a directly binds to tubulin at the colchicine binding site, we carried out N,N′-ethylenebis(iodoacetamide) (EBI) competition assay in PC3 cells according to previously published references[29]^,[30]. EBI is an alkylating agent that has the property to specifically cross-link the Cys239 and the Cys354 residues of β-tubulin involved in the colchicine-binding site[31]. The occupancy of colchicine-binding site by tubulin polymerisation inhibitors could inhibit the formation of the EBI: β-tubulin adduct.
# PC3 cells [6] = experiment: DAPI staining, PC3 cells; type: cell-based; details: PC3 cells, 1, 2 and 4 μM, 48 h
# Method: (§5) Cells were seeded on a 6-well plate (2 × 10^5/well) and treated with the test compound after the incubation for 24 h. Then, cells were stained by DAPI (4′,6-diamidino-2-phenylindole) in the dark for 30 min.
# C42B cells = experiment: MTT antiproliferative assay, C42B cells; type: cell-based
# Method: as §1, §2
# [7] = tested on: microtubule network in PC3 cells; experiment: Immunofluorescence staining of microtubules in PC3 cells; type: cell-based; details: 48 h
# Method: PC3 cells were seeded on the slices and incubated overnight. Then, cells were treated with different concentrations of 12a. After 48 h, slices were fixed by 4% paraformaldehyde for 15 min after washed by PBS for 3 times. 0.5% Triton-X-100 was added and shaked for 20 min. 0.1% BSA was used to block for 30 min and then removed. The slices were added β-tubulin antibody (1:100) and incubated overnight. Then slices were washed by PBST 3 times, bind with secondary antibody with FITC signal (1:500) in a dark. DAPI was used to stain for 3 min and then removed. After that, images were captured by Laser scanning confocal microscope (Nikon, Japan).
# As the microtubule system played an important role in the maintenance of cell shape and basic cellular functions, an immunofluorescence staining assay was performed to study whether benzothiazole hybrid 12a could disrupt the microtubule dynamics in living cells.
# [8] = Cytotoxicity against normal prostatic cell line RWPE-1; type: cell-based; details: RWPE-1 normal prostatic cells; normal human prostatic cell line
# Method: as §1, §2
# 22RV1 cells [9] = experiment: DAPI staining, 22RV1 cells; type: cell-based; details: 22RV1 cells, 1, 2 and 4 μM, 48 h
# Method: as §5
# [10] = tested on: apoptosis-related proteins (Bcl-2 and Cleaved-parp); experiment: Western blot of apoptosis-related proteins, 22RV1 cells; type: cell-based; details: concentration-dependent
# Method: as §3, §4
smiles,measurement,setting,value
CCOc1ccc2nc(N3CN(c4ccccc4)c4ccccc4C3=O)sc2c1 [Compound 3],IC50,[1],4.01 µM
"COc1ccc(CN(C(=O)CSc2nc3ccccc3o2)c2cc(OC)c(OC)c(OC)c2)cc1 [Compound 4, reference compound]",IC50,"22RV1 cells [2]; Homo sapiens, 22Rv1",6.48 ± 0.25 µM
same,IC50,PC3 cells [3],3.53 µM
same,IC50,LNCAP cells,10 µM
"O=c1[nH]cc(F)c(=O)[nH]1 [Compound 5-FU, [5]-fluorouracil, reference compound]",IC50,22RV1 cells [2],18.3 ± 1.27 µM
"COc1cc(N(Cc2ccc(F)cc2)C(=O)CSc2nc3ccccc3s2)cc(OC)c1OC [Compound 9a, 2-(Benzo[d]thiazol-2-ylthio)-N-(4-fluorobenzyl)-N-(3,4,5-trimethoxyphenyl)acetamide]",IC50,"22RV1 cells [2]; Homo sapiens, 22Rv1, 72 h",16.2 ± 0.84 µM
"COc1cc(N(Cc2cccc(Cl)c2)C(=O)CSc2nc3ccccc3s2)cc(OC)c1OC [Compound 9b, 2-(Benzo[d]thiazol-2-ylthio)-N-(3-chlorobenzyl)-N-(3,4,5-trimethoxyphenyl)acetamide]",Fold activity loss when p-Br replaced with m-Cl (9d vs. 9b),"22RV1 cells [2]; 22RV1 cells, ratio of IC50 values",over 3 fold
same,IC50,"22RV1 cells [2]; Homo sapiens, 22Rv1, 72 h",> 12 µM
same,IC50,22RV1 cells [2],19.1 ± 1.15 µM
"COc1cc(N(Cc2ccc(Cl)cc2)C(=O)CSc2nc3ccccc3s2)cc(OC)c1OC [Compound 9c, 2-(Benzo[d]thiazol-2-ylthio)-N-(4-chlorobenzyl)-N-(3,4,5-trimethoxyphenyl)acetamide]",IC50,"22RV1 cells [2]; Homo sapiens, 22Rv1, 72 h",> 12 µM
same,IC50,22RV1 cells [2],12.2 ± 0.58 µM
"COc1cc(N(Cc2ccc(Br)cc2)C(=O)CSc2nc3ccccc3s2)cc(OC)c1OC [Compound 9d, 2-(Benzo[d]thiazol-2-ylthio)-N-(4-bromobenzyl)-N-(3,4,5-trimethoxyphenyl)acetamide]",IC50,"22RV1 cells [2]; Homo sapiens, 22Rv1, 72 h",6.2 ± 0.71 µM
"COc1cc(N(Cc2ccc(C)cc2)C(=O)CSc2nc3ccccc3s2)cc(OC)c1OC [Compound 9e, 2-(Benzo[d]thiazol-2-ylthio)-N-(4-methylbenzyl)-N-(3,4,5-trimethoxyphenyl)acetamide]",IC50,"22RV1 cells [2]; Homo sapiens, 22Rv1, 72 h",8.25 ± 0.43 µM
"COc1cc(N(Cc2ccccc2)C(=O)CSc2nc3ccccc3s2)cc(OC)c1OC [Compound 9f, 2-(Benzo[d]thiazol-2-ylthio)-N-benzyl-N-(3,4,5-trimethoxyphenyl)acetamide]",IC50,"22RV1 cells [2]; Homo sapiens, 22Rv1, 72 h",9.06 ± 0.17 µM
"COc1cccc(CN(C(=O)CSc2nc3ccccc3s2)c2cc(OC)c(OC)c(OC)c2)c1 [Compound 9g, 2-(Benzo[d]thiazol-2-ylthio)-N-(3-methoxybenzyl)-N-(3,4,5-trimethoxyphenyl)acetamide]",IC50,"22RV1 cells [2]; Homo sapiens, 22Rv1, 72 h",7.37 ± 0.56 µM
"COc1ccc(CN(C(=O)CSc2nc3ccccc3s2)c2cc(OC)c(OC)c(OC)c2)cc1 [Compound 9h, 2-(Benzo[d]thiazol-2-ylthio)-N-(4-methoxybenzyl)-N-(3,4,5-trimethoxyphenyl)acetamide]",IC50,"22RV1 cells [2]; Homo sapiens, 22Rv1, 72 h",5.24 µM
"COc1ccc(CN(C(=O)CSc2nc3ccccc3s2)c2ccc(C)cc2)cc1 [Compound 9i, 2-(Benzo[d]thiazol-2-ylthio)-N-(4-methoxybenzyl)-N-(p-tolyl)acetamide]",IC50,"22RV1 cells [2]; Homo sapiens, 22Rv1, 72 h",> 20 µM
"COc1ccc(CN(C(=O)CSc2nc3ccccc3s2)c2ccc(Cl)c(Cl)c2)cc1 [Compound 9j, 2-(Benzo[d]thiazol-2-ylthio)-N-(3,4-dichlorophenyl)-N-(4-methoxybenzyl)acetamide]",IC50,"22RV1 cells [2]; Homo sapiens, 22Rv1, 72 h",> 20 µM
"COc1ccc(CN(C(=O)CSc2nc3ccccc3s2)c2ccccc2)cc1 [Compound 9k, 2-(Benzo[d]thiazol-2-ylthio)-N-(4-methoxybenzyl)-N-phenylacetamide]",IC50,"22RV1 cells [2]; Homo sapiens, 22Rv1, 72 h",> 20 µM
same,melting point,,109 to 110 °C
"COc1cc(N(Cc2c(C)noc2C)C(=O)CSc2nc3ccccc3s2)cc(OC)c1OC [Compound 12a, 2-(Benzo[d]thiazol-2-ylthio)-N-((3,5-dimethylisoxazol-4-yl)methyl)-N-(3,4,5-trimethoxyphenyl)acetamide]",IC50,"22RV1 cells [2]; Homo sapiens, 22Rv1, 72 h",2.13 ± 0.24 µM
same,Expression level of Bcl-2,[4],decreased
same,Expression level of Cleaved-parp,[4],increased
same,IC50,tubulin,2.87 µM
same,IC50,PC3 cells [3],2.04 µM
same,Formation of the EBI: β-tubulin adduct,[5],prevented the formation of the EBI: β-tubulin adduct
same,Morphological changes (DAPI staining),PC3 cells [6],characteristic apoptotic morphological changes were observed
same,IC50,C42B cells,2.81 µM
same,Effect on interphase microtubules,[7]; 1 μM,moderately depolymerised interphase microtubules
same,Effect on interphase microtubules,[7]; 4 μM,much stronger depolymerisation effects
same,IC50 at 72 h,[8],> 20 µM
same,Morphological changes (DAPI staining),22RV1 cells [9],characteristic apoptotic morphological changes were observed
same,IC50,LNCAP cells,4.31 µM
same,Expression level of Bcl-2,[10],decreased
same,Expression level of Cleaved-parp,[10],increased
"COc1cc(N(Cc2ccncc2)C(=O)CSc2nc3ccccc3s2)cc(OC)c1OC [Compound 12b, 2-(Benzo[d]thiazol-2-ylthio)-N-(pyridin-4-ylmethyl)-N-(3,4,5-trimethoxyphenyl)acetamide]",IC50,"22RV1 cells [2]; Homo sapiens, 22Rv1, 72 h",5.09 ± 0.62 µM
"COc1cc(N(Cc2ccc(Cl)nc2)C(=O)CSc2nc3ccccc3s2)cc(OC)c1OC [Compound 12c, 2-(Benzo[d]thiazol-2-ylthio)-N-((6-chloropyridin-3-yl)methyl)-N-(3,4,5-trimethoxyphenyl)acetamide]",IC50,"22RV1 cells [2]; Homo sapiens, 22Rv1, 72 h",11.8 ± 0.91 µM
"COc1cc(N(Cc2ccc3ccccc3c2)C(=O)CSc2nc3ccccc3s2)cc(OC)c1OC [Compound 12d, 2-(Benzo[d]thiazol-2-ylthio)-N-(naphthalen-2-ylmethyl)-N-(3,4,5-trimethoxyphenyl)acetamide]",IC50,"22RV1 cells [2]; Homo sapiens, 22Rv1, 72 h",6.93 ± 0.46 µM
